31 compounds from patent US10752635B2, “Indazole compounds and uses thereof” (Incyte Corporation, priority 2018, dated 2020) can be followed below.

A word on the Ki: it is the dissociation constant of the complex between target and ligand, obtained from inhibition or displacement. The low end stands for a stronger hold on the target, the high end for a looser hold on the target.

Sequence of HPK1 (Q92918 1-346 limits assumed): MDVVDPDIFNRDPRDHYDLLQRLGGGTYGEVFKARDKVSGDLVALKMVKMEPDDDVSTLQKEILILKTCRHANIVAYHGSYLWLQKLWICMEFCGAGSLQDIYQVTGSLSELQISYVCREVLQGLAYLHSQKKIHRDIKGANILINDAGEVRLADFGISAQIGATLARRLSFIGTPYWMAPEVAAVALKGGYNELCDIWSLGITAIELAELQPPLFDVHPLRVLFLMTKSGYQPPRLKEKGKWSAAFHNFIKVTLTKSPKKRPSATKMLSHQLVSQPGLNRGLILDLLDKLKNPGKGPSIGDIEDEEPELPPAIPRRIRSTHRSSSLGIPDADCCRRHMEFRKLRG

The experiment addresses HPK1 (Homo sapiens (Human), UniProt Q92918). The experiment is described as follows: HPK1 Kinase Binding Assay. The conditions noted are these: active HPK1 (SignalChem M23-11G), tracer 222, LanthaScreen Eu-Anti GST antibody, one hour at 25° C. The protocol: A stock solution of 1 mM test compound was prepared in DMSO. The compound plate was prepared by 3-fold and 11-point serial dilutions. 0.1 μL of the compound in DMSO was transferred from the compound plate to the white 384 well polystyrene plates. The assay buffer contained 50 mM HEPES, pH 7.5, 0.01% Tween-20, 5 mM MgCl2, 0.01% BSA, and 5 mM DTT. 5 μL of 4 nM active HPK1 (SignalChem M23-11G) prepared in the buffer was added to the plate. The enzyme concentration given was based on the given stock concentration reported by the vender. […] After one hour incubation at 25° C., the plates were read on a PHERAstar FS plate reader (BMG Labtech). Ki values were determined.
In general terms: Time-resolved FRET reads energy transfer from a long-lived donor to a nearby acceptor.
The compound `COc1cccc(F)c1-c1nccc(C(=O)Nc2cc(F)c3c(cnn3C)c2N2CCCC2=O)n1` [Example 12, N-(7-Fluoro-1-methyl-4-(2-oxopyrrolidin-1-yl)-1H-indazol-5-yl)-2-(2-fluoro-6-methoxyphenyl)pyrimidine-4-carboxamide] showed an inhibitory constant (Ki) of less than 100 nM. `[2H]C([2H])([2H])Oc1ccc(C)c(F)c1-c1nccc(C(=O)Nc2cc(F)c3c(cnn3CCOC)c2N2C[C@@H](N)C[C@H]2CO)n1` [Example 37, N-(4-((2S,4S)-4-Amino-2-(hydroxymethyl)pyrrolidin-1-yl)-7-fluoro-1-(2-methoxyethyl)-1H-indazol-5-yl)-2-(2-fluoro-6-(methoxy-d3)-3-methylphenyl)pyrimidine-4-carboxamide]: the Ki is less than 100 nM. Compound `CCNC(=O)N1C[C@@H]2C[C@H]1CN2c1c(NC(=O)c2ccnc(-c3c(F)cccc3OC)n2)cc(F)c2c1cnn2C` [Example 2, (1S,4S)—N-Ethyl-5-(7-fluoro-5-(2-(2-fluoro-6-methoxyphenyl)pyrimidine-4-carboxamido)-1-methyl-1H-indazol-4-yl)-2,5-diazabicyclo[2.2.1]heptane-2-carboxamide] had a Ki of less than 100 nM. Next, `CNC(=O)c1cc(NC(=O)c2ccnc(-c3c(F)cccc3OC)n2)c(N2CCC[C@@H](N)C2)c2cnn(C)c12` (single isomer, unassigned; peak 2) [16, Peak 2]: less than 100 nM; `COc1cccc(F)c1-c1nccc(C(=O)Nc2cc(F)c3c(cnn3C)c2-c2cccnc2)n1` [Example 20, N-(7-Fluoro-1-methyl-4-(pyridin-3-yl)-1H-indazol-5-yl)-2-(2-fluoro-6-methoxyphenyl)pyrimidine-4-carboxamide]: less than 100 nM; `COc1cccc(F)c1-c1nccc(C(=O)Nc2cc(F)c3c(cnn3C)c2-c2cnn(C)c2)n1` [Example 21, N-(7-Fluoro-1-methyl-4-(1-methyl-1H-pyrazol-4-yl)-1H-indazol-5-yl)-2-(2-fluoro-6-methoxyphenyl)pyrimidine-4-carboxamide]: less than 100 nM. Next, `COc1cccc(F)c1-c1nccc(C(=O)Nc2cc(F)c3c(cnn3-c3ccncc3C#N)c2N2C[C@@H](N)C[C@H]2CO)n1` [Example 34, N-(4-((2S,4S)-4-Amino-2-(hydroxymethyl)pyrrolidin-1-yl)-1-(3-cyanopyridin-4-yl)-7-fluoro-1H-indazol-5-yl)-2-(2-fluoro-6-methoxyphenyl)pyrimidine-4-carboxamide]: less than 100 nM; `COc1cccc(F)c1-c1nccc(C(=O)Nc2cc(F)c3c(cnn3CCO)c2N2CC[C@@H](N)C2)n1` [Example 17, (R)—N-(4-(3-Aminopyrrolidin-1-yl)-7-fluoro-1-(2-hydroxyethyl)-1H-indazol-5-yl)-2-(2-fluoro-6-methoxyphenyl)pyrimidine-4-carboxamide]: less than 100 nM. Next, `COc1cccc(F)c1-c1nccc(C(=O)Nc2cc(F)c3c(cnn3C)c2N2CCC[C@@H]2CN)n1` (single isomer, unassigned; peak 2) [10, Peak 2]: less than 100 nM; `COc1cccc(F)c1-c1nccc(C(=O)Nc2cc(F)c3c(cnn3C)c2N2CC(N)C2)n1` [Example 9, N-(4-(3-Aminoazetidin-1-yl)-7-fluoro-1-methyl-1H-indazol-5-yl)-2-(2-fluoro-6-methoxyphenyl)pyrimidine-4-carboxamide]: less than 100 nM; `COc1cccc(F)c1-c1nccc(C(=O)Nc2cc(F)c3nn(C)cc3c2N2CCN[C@@H](CO)C2)n1` [Example 33, (R)—N-(7-Fluoro-4-(3-(hydroxymethyl)piperazin-1-yl)-2-methyl-2H-indazol-5-yl)-2-(2-fluoro-6-methoxyphenyl)pyrimidine-4-carboxamide]: less than 100 nM. `COc1cccc(F)c1-c1nccc(C(=O)Nc2cc(C#N)c3nn(C)cc3c2N2CCC[C@@H](N)C2)n1` (single isomer, unassigned; peak 1) [15, Peak 1] gave an inhibition constant Ki of less than 100 nM. Next, `COc1cccc(F)c1-c1nccc(C(=O)Nc2cc(F)c3c(cnn3C)c2-c2cccc(CN(C)C)c2)n1` [Example 24, N-(4-(3-((Dimethylamino)methyl)phenyl)-7-fluoro-1-methyl-1H-indazol-5-yl)-2-(2-fluoro-6-methoxyphenyl)pyrimidine-4-carboxamide]: less than 100 nM; `COc1cccc(F)c1-c1nccc(C(=O)Nc2cc(F)c3c(cnn3C)c2-n2cccn2)n1` [Example 13, N-(7-Fluoro-1-methyl-4-(1H-pyrazol-1-yl)-1H-indazol-5-yl)-2-(2-fluoro-6-methoxyphenyl)pyrimidine-4-carboxamide]: less than 100 nM; `COc1cccc(F)c1-c1nccc(C(=O)Nc2ccc3c(c(I)nn3C)c2N2CCC(N(C)C)CC2)n1` [Example 27, N-(4-(4-(Dimethylamino)piperidin-1-yl)-3-iodo-1-methyl-1H-indazol-5-yl)-2-(2-fluoro-6-methoxyphenyl)pyrimidine-4-carboxamide]: less than 100 nM. The compound `COc1cccc(F)c1-c1nccc(C(=O)Nc2cc(C)c3c(cnn3C)c2N2CCNCC2)n1` [18, Peak 2] came in with an inhibitory constant (Ki) of less than 100 nM.

`COCCn1ncc2c(N3C[C@@H]4C[C@H]3CN4)c(NC(=O)c3ccnc(-c4c(F)cccc4OC)n3)cc(F)c21` [Example 26, N-(4-((1S,4S)-2,5-diazabicyclo[2.2.1]heptan-2-yl)-7-fluoro-1-(2-methoxyethyl)-1H-indazol-5-yl)-2-(2-fluoro-6-methoxyphenyl)pyrimidine-4-carboxamide] returned an inhibitory constant (Ki) of less than 100 nM. In turn, `COc1cccc(F)c1-c1nccc(C(=O)Nc2cc(F)c3c(cnn3C)c2N2CCC3(CCNC3=O)C2)n1` (single isomer, unassigned; peak 2) [8, Peak 2] had an inhibitory constant (Ki) of less than 100 nM. `COc1cccc(F)c1-c1nccc(C(=O)Nc2cc(F)c3nn(C)cc3c2N2CCC3(CCNC3=O)C2)n1` (single isomer, unassigned; peak 1) [8, Peak 1]: the inhibition constant (Ki) is less than 100 nM. Compound `COc1cccc(F)c1-c1nccc(C(=O)Nc2cc(C)c3nn(C)cc3c2N2CCNCC2)n1` [18, Peak 1] yielded a Ki of less than 100 nM.

As for `COc1cccc(F)c1-c1nccc(C(=O)Nc2cc(F)c3c(cnn3CCO)c2N2C[C@@H]3C[C@H]2CN3)n1` [Example 25, N-(4-((1S,4S)-2,5-diazabicyclo[2.2.1]heptan-2-yl)-7-fluoro-1-(2-hydroxyethyl)-1H-indazol-5-yl)-2-(2-fluoro-6-methoxyphenyl)pyrimidine-4-carboxamide], the Ki was less than 100 nM.

`COc1cccc(F)c1-c1nccc(C(=O)Nc2cc(F)c3c(cnn3CCF)c2N2C[C@@H]3C[C@H]2CN3)n1` [Example 36, N-(4-((1S,4S)-2,5-Diazabicyclo[2.2.1]heptan-2-yl)-7-fluoro-1-(2-fluoroethyl)-1H-indazol-5-yl)-2-(2-fluoro-6-methoxyphenyl)pyrimidine-4-carboxamide] had an inhibition constant (Ki) of less than 100 nM.

`COc1cccc(F)c1-c1nccc(C(=O)Nc2cc(F)c3c(cnn3C)c2N(C)[C@@H]2CCCNC2)n1` [Example 41, (R)—N-(7-Fluoro-1-methyl-4-(methyl(piperidin-3-yl)amino)-1H-indazol-5-yl)-2-(2-fluoro-6-methoxyphenyl)pyrimidine-4-carboxamide]: the Ki was less than 100 nM. Compound `COc1cccc(F)c1-c1nccc(C(=O)Nc2cc(F)c3c(cnn3C)c2-c2cccc(CO)c2)n1` [Example 22, N-(7-Fluoro-4-(3-(hydroxymethyl)phenyl)-1-methyl-1H-indazol-5-yl)-2-(2-fluoro-6-methoxyphenyl)pyrimidine-4-carboxamide] registered a Ki of less than 100 nM. In turn, `COc1cccc(F)c1-c1nccc(C(=O)Nc2cc(C#N)c3c(cnn3C)c2N2CCC[C@@H](N)C2)n1` (single isomer, unassigned; peak 2) [15, Peak 2] came in with a Ki of less than 100 nM. With `CNC(=O)c1cc(NC(=O)c2ccnc(-c3c(F)cccc3OC)n2)c(N2CCC[C@@H](N)C2)c2cn(C)nc12` (single isomer, unassigned; peak 1) [16, Peak 1], the Ki lay within 500 to 5000 nM. In turn, `COc1cccc(F)c1-c1nccc(C(=O)Nc2cc(F)c3c(cnn3C)c2-c2ccccc2C)n1` (single isomer, unassigned; peak 2) [14, Peak 2] came in with an inhibition constant (Ki) of less than 100 nM. `COCCn1ncc2c(N3C[C@@H](N)C[C@H]3CO)c(NC(=O)c3cccc(-c4c(F)cccc4OC)n3)cc(F)c21` [Example 42, N-(4-((2S,4S)-4-Amino-2-(hydroxymethyl)pyrrolidin-1-yl)-7-fluoro-1-(2-methoxyethyl)-1H-indazol-5-yl)-6-(2-fluoro-6-methoxyphenyl)picolinamide] came in with a Ki of less than 100 nM.

On to `COc1cccc(F)c1-c1nccc(C(=O)Nc2cc(F)c3c(cnn3C)c2-c2ccccc2CO)n1` [Example 23, N-(7-Fluoro-4-(2-(hydroxymethyl)phenyl)-1-methyl-1H-indazol-5-yl)-2-(2-fluoro-6-methoxyphenyl)pyrimidine-4-carboxamide], for which the Ki is less than 100 nM.

For the compound `COc1cccc(F)c1-c1nccc(C(=O)Nc2ccc3c(c(C)nn3C)c2N2CCC(N(C)C)CC2)n1` [Example 28, N-(4-(4-(Dimethylamino)piperidin-1-yl)-1,3-dimethyl-1H-indazol-5-yl)-2-(2-fluoro-6-methoxyphenyl)pyrimidine-4-carboxamide], the Ki is less than 100 nM. In turn, `COCCn1ncc2c(N3C[C@@H](N)C[C@H]3CO)c(NC(=O)c3ccnc(-c4c(OC)ccc(-c5cnn(C)c5)c4F)n3)cc(F)c21` [Example 40, N-(4-((2S,4S)-4-Amino-2-(hydroxymethyl)pyrrolidin-1-yl)-7-fluoro-1-(2-methoxyethyl)-1H-indazol-5-yl)-2-(2-fluoro-6-methoxy-3-(1-methyl-1H-pyrazol-4-yl)phenyl)pyrimidine-4-carboxamide] had a Ki of less than 100 nM.
